Consider one molecule from patent US5756521A, “Chroman-2-ylmethylamino derivatives” (American Home Products Corporation, priority 1997, dated 1998).

In test [1] the target is T1, dopamine autoreceptor (D2, 3H-quinpirole) (Rattus norvegicus, UniProt P61169).
T1 construct: homogenized rat striatal brain tissue; from tissue; host or cells: rat striatal brain tissue
The experiment in a line: Dopamine autoreceptor affinity, 3H-quinpirole binding in homogenized rat striatal brain tissue. The settings on record: rat striatal brain tissue homogenate, read-out: IC50 (nM), D2, (Quin.). As for the experimental part:
Affinity for the dopamine autoreceptor was established by a modification of the standard experimental test procedure of Seemen and Schaus, European Journal of Pharmacology 203: 105-109, 1991, wherein homogenized rat striatal brain tissue is incubated with ^3 H-quinpirole (Quin.) and various concentrations of test compound, filtered and washed and counted in a Betaplate scintillation counter.

The next test has as its target T2, dopamine D-2 receptor (Rattus norvegicus, UniProt P61169).
T2 construct: homogenized limbic brain tissue; from tissue
Kind of test: Dopamine D-2 receptor affinity, 3H-spiroperidol binding in homogenized limbic brain tissue. As for the experimental part:
High affinity for the dopamine D-2 receptor was established by the standard experimental test procedure of Fields, et al., Brain Res., 136, 578 (1977) and Yamamura et al., eds., Neurotransmitter Receptor Binding, Raven Press, N.Y. (1978) wherein homogenized limbic brain tissue is incubated with ^3 H-spiroperidol (Spiper.) and various concentrations of test compound, filtered and washed and shaken with Hydrofluor scintillation cocktail (National Diagnostics) and counted in a Packard 460 CD scintillation counter.

T2 sequence (P61169 whole entry): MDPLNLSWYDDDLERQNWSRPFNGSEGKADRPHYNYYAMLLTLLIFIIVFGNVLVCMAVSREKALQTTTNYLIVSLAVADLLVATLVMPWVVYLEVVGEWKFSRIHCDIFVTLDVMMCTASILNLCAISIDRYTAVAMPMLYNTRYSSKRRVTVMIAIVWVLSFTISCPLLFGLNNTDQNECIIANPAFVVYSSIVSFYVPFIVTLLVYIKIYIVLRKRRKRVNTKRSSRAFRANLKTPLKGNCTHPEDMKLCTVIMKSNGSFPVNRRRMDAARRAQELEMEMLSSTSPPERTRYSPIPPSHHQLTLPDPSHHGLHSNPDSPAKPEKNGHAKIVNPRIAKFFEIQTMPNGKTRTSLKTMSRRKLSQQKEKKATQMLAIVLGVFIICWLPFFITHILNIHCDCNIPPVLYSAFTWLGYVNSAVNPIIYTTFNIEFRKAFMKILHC
T1 sequence (P61169 whole entry): as above

In general, IC50 refers to the midpoint of a concentration-inhibition curve. Take `Oc1ccc2c(c1)OC(CNCc1ccccn1)CC2` (stereo not drawn) [Example 1]: the half-inhibitory concentration (IC50) in test [1] amounted to 2.21 nM; on dopamine D-2 receptor (3H-spiroperidol, limbic brain tissue homogenate, read-out: IC50 (nM), (Spiper.)) it was 1230 nM. Also, the ratio on dopamine D-2 receptor (ratio of IC50 (Spiper.) to IC50 (Quin.), LowAg/HighAg) was found to be 557.
